# Read-outs that look alike come from different tables or passages of the source.
# Tests used:
# [1] = test system: Candida parapsilosis clinical isolate CP1; assay: MIC, broth microdilution (CLSI M27-A3), CP1; format: cell-based; details: Lodderomyces parapsilosis; MIC-0, CP1, 35 °C 48 h
# Protocol: (§1) The final concentrations of compounds 3, 4, 7a, 7b, 9, and 16, as well as that of TOB tested in this study ranged from 0.24–62.5 μg/mL. CAS was used as a positive control and the final concentrations tested for CAS ranged from 0.03–31.3 μg/mL. Briefly, overnight yeast cultures were grown in yeast peptone dextrose (YPD) broth and the cell density was adjusted to an OD600 of 0.12 (~1 × 10^6 CFU/mL) by using a spectrophotometer. Yeast cell suspensions were further diluted to achieve 1–5 × 10^3 CFU/mL in RPMI 1640 medium, and 100 μL of these yeast cells was added to 96-well microtiter plates containing RPMI 1640 medium and titrated compounds. Each test was performed in triplicate. The plates were incubated at 35 °C for 48 h.
# [2] = test system: murine red blood cells (mRBCs); assay: Hemolytic activity assay; format: cell-based; details: at 3.9 μg/mL, 2- to 8-fold their MIC values against the three C. neoformans clinical isolates
# Protocol: (§2) The hemolytic activity of compounds 3, 4, 7a, 7b, and 9 as well as the parent compound TOB was determined by using previously described methods with minor modifications. Murine whole blood (1 mL) was suspended in 4 mL of PBS and centrifuged at 1000 rpm for 10 min at room temperature to obtain murine red blood cells (mRBCs). The mRBCs were washed four times in PBS and resuspended in the same buffer to a final concentration of 10^7 erythrocytes/mL. Two-fold serial dilutions of compounds 3, 4, 7a, 7b, and 9 were prepared using 100 μL of PBS buffer in Eppendorf tubes followed by the addition of 100 μL of mRBC suspension that made the final concentration of compounds and mRBCs to be 0.48–62.5 μg/mL and 5 × 10^6 erythrocytes/mL, respectively. The tubes were incubated at 37 °C for 1 h. The tubes with PBS buffer (200 μL) and Triton X-100® (1% v/v, 2 μL) served as the negative (blank) and positive controls, respectively. The percentage of hemolysis was calculated using the following equation: % hemolysis = [(absorbance of sample) − (absorbance of blank)] × 100/(absorbance of positive control).
# Hemolytic activity assay = format: cell-based, murine; details: mouse, murine red blood cells (mRBCs); for hemolysis at 1 h, 0.48 μg/mL / hemolysis at 1 h, 0.975 μg/mL / hemolysis at 1 h, 1.95 μg/mL / hemolysis at 1 h, 3.9 μg/mL / hemolysis at 1 h, 7.8 μg/mL / hemolysis at 1 h, 15.6 μg/mL / hemolysis at 1 h, 31.3 μg/mL / hemolysis at 1 h, 62.5 μg/mL: mRBCs, 37 °C 1 h, ± SDEV; for hemolysis at 1 h: at their MIC values against the Aspergillus strains
# Protocol: as §2
# [3] = test system: C. albicans ATCC MYA-1003(R) (strain G); assay: MIC, broth microdilution (CLSI M27-A3), yeast strain G; format: cell-based; details: Candida albicans; MIC-0, strain G, 35 °C 48 h
# Protocol: as §1
# [4] = test system: Candida glabrata clinical isolate CG2; assay: MIC, broth microdilution (CLSI M27-A3), CG2; format: cell-based; details: Nakaseomyces glabratus; MIC-0, CG2, 35 °C 48 h
# Protocol: as §1
# [5] = test system: Candida parapsilosis clinical isolate CP2; assay: MIC, broth microdilution (CLSI M27-A3), CP2; format: cell-based; details: Lodderomyces parapsilosis; MIC-0, CP2, 35 °C 48 h
# Protocol: as §1
# [6] = test system: Aspergillus flavus ATCC MYA-3631 (strain K); assay: MIC, filamentous fungi (CLSI M38-A2), strain K; format: cell-based; details: MIC-0, strain K, 35 °C 72 h
# Protocol: The spores were harvested from sporulating cultures growing on potato dextrose agar (PDA) by filtration through sterile glass wool and enumerated by using a hemocytometer (Hausser Scientific, Horsham, PA, USA) to obtain the desired inoculum size. Two-fold serial dilutions of compounds 3, 4, 7a, 7b, 9, and 16, as well as CAS and TOB were made in sterile 96-well microtiter plates to obtain the final concentration range of 0.24–62.5 μg/mL for TOB and TOB derivatives as well as 0.03–31.3 μg/mL for CAS in the RPMI 1640 medium. The spore suspensions were added to the wells to afford a final concentration of 5 × 10^5 spores/mL. The plates were incubated at 35 °C for 72 h. […] Each test was performed in triplicate.
# A549 cell line = assay: In vitro cytotoxicity assay (resazurin), A549; format: cell-based, human; details: for IC50: Homo sapiens, A549, 24 h, resazurin
# Protocol: Mammalian cytotoxicity assays were performed as previously described with minor modifications. The normal human bronchial epithelial cells BEAS-2B and the human lung carcinoma epithelial cells A549 were grown in DMEM containing 10% fetal bovine serum (FBS) and 1% antibiotics. The confluent cells were then trypsinized with 0.05% trypsin and 0.53 mM EDTA, and resuspended in fresh DMEM medium. The cells were transferred into 96-well microtiter plates at a density of 3000 cells/well and were grown for 24 h. The following day, the medium was replaced by a fresh culture medium containing serially diluted compounds 3, 4, 7a, 7b, and 9, as well as the parent drug TOB at final concentrations of 0.48–62.5 μg/mL or sterile ddH2O (negative control). The cells were incubated for an additional 24 h at 37 °C with 5% CO2 in a humidified incubator. To evaluate cell survival, each well was treated with 10 μL (25 μg/mL) of resazurin sodium salt (Sigma-Aldrich) for 4–6 h. Metabolically active cells can convert resazurin (blue) to the highly fluorescent dye resorufin (pink), which was detected at λ560 excitation and λ590 emission wavelengths by using a SpectraMax M5 plate reader. Triton X-100® (1% v/v) gave the complete loss of cell viability and was used as the positive control. The percentage survival rates were calculated by using the following formula: % cell survival = [(fluorescence of sample) − (fluorescence of blank)] × 100/[(fluorescence of negative control) − (fluorescence of blank)].
# [7] = Aspergillus flavus, 72 h, read-out: MIC
Compound,MIC [1],MIC [3],MIC [4],MIC [5],"MIC [6, 7]",MIC [6],mRBCs lysed [2],"hemolysis at 1 h, 0.48 μg/mL (Hemolytic activity assay)","hemolysis at 1 h, 0.975 μg/mL (Hemolytic activity assay)","hemolysis at 1 h, 1.95 μg/mL (Hemolytic activity assay)","hemolysis at 1 h, 3.9 μg/mL (Hemolytic activity assay)","hemolysis at 1 h, 7.8 μg/mL (Hemolytic activity assay)","hemolysis at 1 h, 15.6 μg/mL (Hemolytic activity assay)","hemolysis at 1 h, 31.3 μg/mL (Hemolytic activity assay)","hemolysis at 1 h, 62.5 μg/mL (Hemolytic activity assay)",hemolysis at 1 h (Hemolytic activity assay),IC50 (A549 cell line),"toxicity (in words) (A549 cell line; A549, 0.48-62.5 μg/mL, 24 h)"
"CCCCCCCCCCCCSC[C@H]1O[C@H](O[C@@H]2[C@@H](O)[C@H](O[C@H]3O[C@H](CN)[C@@H](O)C[C@H]3N)[C@@H](N)C[C@H]2N)[C@H](O)[C@@H](N)[C@@H]1O [Compound 3, O-3-Amino-3-deoxy-6-S-dodecyl-6-thio-α-D-glucopyranosyl-(1→6)-O-[2,6-diamino-2,3,6-trideoxy-α-D-ribo-hexopyranosyl-(1→4)]-2-deoxy-D-streptamine]",15.6 µg/mL,15.6 µg/mL,7.8 µg/mL,7.8 µg/mL,7.8 to 31.3 µg/mL,15.6 µg/mL,up to 13%,0%,2.5 ± 2.3%,6 ± 3.5%,12 ± 1.9%,18.6 ± 6.6%,46.2 ± 2.3%,55.5 ± 3.9%,67 ± 4.6%,12 to 74%,–,–
"CCCCCCCCCCCCS(=O)(=O)C[C@H]1O[C@H](O[C@@H]2[C@@H](O)[C@H](O[C@H]3O[C@H](CN)[C@@H](O)C[C@H]3N)[C@@H](N)C[C@H]2N)[C@H](O)[C@@H](N)[C@@H]1O [Compound 4, O-3-Amino-3,6-dideoxy-6-(dodecylsulfonyl)-α-D-glucopyranosyl-(1→6)-O-[2,6-diamino-2,3,6-trideoxy-α-D-ribo-hexopyranosyl-(1→4)]-2-deoxy-D-streptamine]",3.9 µg/mL,15.6 µg/mL,3.9 µg/mL,3.9 µg/mL,–,–,up to 13%,0%,0%,6.6 ± 3.5%,6 ± 1.9%,10.7 ± 3.1%,15.3 ± 5%,24.9 ± 2.3%,31.2 ± 6.6%,4 to 32%,> 62.5 µg/mL,–
"CCCCCCCCCCCC(=O)NC[C@H]1O[C@H](O[C@@H]2[C@@H](O)[C@H](O[C@H]3O[C@H](CN)[C@@H](O)C[C@H]3N)[C@@H](N)C[C@H]2N)[C@H](O)[C@@H](N)[C@@H]1O [Compound 9, O-3-Amino-3,6-dideoxy-6-[(1-oxododecyl)amino]-α-D-glucopyranosyl-(1→6)-O-[2,6-diamino-2,3,6-trideoxy-α-D-ribo-hexopyranosyl-(1→4)]-2-deoxy-D-streptamine]",31.3 µg/mL,31.3 µg/mL,15.6 µg/mL,15.6 µg/mL,–,–,up to 13%,0%,0%,2.5 ± 1.5%,4.1 ± 1.5%,10.1 ± 4.6%,18.3 ± 5.4%,26 ± 11.6%,31.5 ± 1.5%,4 to 32%,> 62.5 µg/mL,–
"NC[C@H]1O[C@H](O[C@H]2[C@H](O)[C@@H](O[C@H]3O[C@H](CO)[C@@H](O)[C@H](N)[C@H]3O)[C@H](N)C[C@@H]2N)[C@H](N)C[C@@H]1O [TOB, tobramycin]",> 62.5 µg/mL,> 62.5 µg/mL,> 62.5 µg/mL,> 62.5 µg/mL,> 62.5 µg/mL,–,–,4.7 ± 3.9%,9.3 ± 3.5%,15.9 ± 1.9%,15.9 ± 8.1%,11.2 ± 4.6%,15.3 ± 5%,15.3 ± 2.7%,21.1 ± 9.3%,–,–,little to no toxicity

# Further lines, with some results ahead:
MIC [1],MIC [3],MIC [4],MIC [5],"MIC [6, 7]",MIC [6],Compound,mRBCs lysed [2],"hemolysis at 1 h, 0.48 μg/mL (Hemolytic activity assay)","hemolysis at 1 h, 0.975 μg/mL (Hemolytic activity assay)","hemolysis at 1 h, 1.95 μg/mL (Hemolytic activity assay)","hemolysis at 1 h, 3.9 μg/mL (Hemolytic activity assay)","hemolysis at 1 h, 7.8 μg/mL (Hemolytic activity assay)","hemolysis at 1 h, 15.6 μg/mL (Hemolytic activity assay)","hemolysis at 1 h, 31.3 μg/mL (Hemolytic activity assay)","hemolysis at 1 h, 62.5 μg/mL (Hemolytic activity assay)",hemolysis at 1 h (Hemolytic activity assay),IC50 (A549 cell line),"toxicity (in words) (A549 cell line; A549, 0.48-62.5 μg/mL, 24 h)"
15.6 µg/mL,62.5 µg/mL,15.6 µg/mL,15.6 µg/mL,–,–,"CCCCCCCCCCc1cn(C[C@H]2O[C@H](O[C@@H]3[C@@H](O)[C@H](O[C@H]4O[C@H](CN)[C@@H](O)C[C@H]4N)[C@@H](N)C[C@H]3N)[C@H](O)[C@@H](N)[C@@H]2O)nn1 [Compound 7a, O-3-Amino-3,6-dideoxy-6-(4-decyl-1H-1,2,3-triazol-1-yl)-α-D-glucopyranosyl-(1→6)-O-[2,6-diamino-2,3,6-trideoxy-α-D-ribo-hexopyranosyl-(1→4)]-2-deoxy-D-streptamine]",up to 13%,0%,0%,15.6 ± 9.3%,0%,7.4 ± 3.1%,14 ± 5.4%,14.8 ± 1.9%,14.8 ± 0.4%,–,> 62.5 µg/mL,–
3.9 µg/mL,7.8 µg/mL,3.9 µg/mL,1.95 µg/mL,7.8 to 31.3 µg/mL,7.8 µg/mL,"CCCCCCCCCCCCc1cn(C[C@H]2O[C@H](O[C@@H]3[C@@H](O)[C@H](O[C@H]4O[C@H](CN)[C@@H](O)C[C@H]4N)[C@@H](N)C[C@H]3N)[C@H](O)[C@@H](N)[C@@H]2O)nn1 [Compound 7b, O-3-Amino-3,6-dideoxy-6-(4-dodecyl-1H-1,2,3-triazol-1-yl)-α-D-glucopyranosyl-(1→6)-O-[2,6-diamino-2,3,6-trideoxy-α-D-ribo-hexopyranosyl-(1→4)]-2-deoxy-D-streptamine]",up to 13%,0%,0%,14.8 ± 3.5%,13.4 ± 6.2%,24.6 ± 8.1%,40.8 ± 5.4%,55.5 ± 5.4%,74.1 ± 0.8%,12 to 74%,> 62.5 µg/mL,–
